Consider one compound from patent US20130225424A1, “METHODS FOR DETERMINING RESPONSIVENESS TO A DRUG BASED UPON DETERMINATION OF RAS MUTATION AND/OR RAS AMPLIFICATION” (Targeted Molecular Diagnostics, LLC, priority 2010, published 2013).

The subject of assay [1] is K-RAS mutant (A549, NCI-H460 & NCI-H23) NSCLC cells. Briefly: Cyquant Direct proliferation assay, K-RAS mutant NSCLC cells. To be noted: 0-10 μM, 72 hours. The class given is cell-based. The protocol: (§1) Additionally, a variety of NSCLC cell lines that were K-RAS mutant (A549, NCI-H460 & NCI-H23), K-RAS mutant/amplified (NCI-H727 & NCI-H2009) and K-RAS wild-type (Calu-3, NCI-H650 & NC-H661) NSCLC cells were plated in 96 well plates treated and treated 24 hours later with multiple concentrations of Methotrexate (0-10 μM). After an additional 72 hours cells were assayed for proliferation using the Invitrogen Cyquant Direct™ proliferation assay. IC50 (inhibitory concentration that kills 50% of cells) was determined using graphpad software. Cells were treated in triplicate and cell numbers were calculated as percent untreated control.

Assay [2] concerns K-RAS mutant/amplified (NCI-H727 & NCI-H2009) NSCLC cells. Briefly: Cyquant Direct proliferation assay, K-RAS mutant/amplified NSCLC cells. The note with it: 0-10 μM, 72 hours. In kind it is cell-based. The method, then: as §1
Assay [3] concerns K-RAS wild-type (Calu-3, NCI-H650 & NC-H661) NSCLC cells. Briefly: Cyquant Direct proliferation assay, K-RAS wild-type NSCLC cells. In kind it is cell-based. To be noted: K-RAS wild-type cells Calu-3, NCI-H650 & NC-H661; 0-10 μM; 72 hours. The protocol: as §1
Assay [4] has as its system K-RAS wild-type NSCLC cells. Briefly: Gene/protein expression after Methotrexate treatment, K-RAS wild-type cells. The class given is cell-based. The protocol:
(§2) Finally, expression of genes/proteins related to folate metabolism and cell cycle progression were examined in K-RAS mutant and K-RAS wild-type NSCLC cells with Methotrexate treatment and K-RAS overexpression or knockdown. Briefly, A549 cells were treated with Methotrexate at a concentration of 0.1 μM. 72 hours after treatment, total RNA was extracted from treated and untreated cells. RT-PCR was then performed on extracted RNA to determine gene expression of K-RAS, Dihydrofolate Reductase (DHFR), Thymidylate Synthase (TYMS) and E2F1. Gene expression was normalized to […] as an internal control.

Assay [5] relates to A549 cells. Briefly: RT-PCR gene/protein expression after Methotrexate treatment, K-RAS mutant cells. The class given is cell-based. To be noted: 0.1 μM, 72 hours after treatment, normalized to Beta-2-Macroglobulin. The protocol: as §2
In assay [6] the test system is H460 cells. The assay can be described thus: H460 tumors implanted in mice, cleaved caspase-3 staining. In kind it is in vivo. To be noted: H460 tumors approx. 500 mg; 130 mg/kg Q4Dx3 IP; harvested 10 days after treatment; cleaved caspase-3 stain. The source says: Tumors were then harvested 10 days after treatment, fixed in formalin and stained for cleaved caspase-3. Next, bright-field pictures were taken at 40× (see, FIG. 4).

For `CN(Cc1cnc2nc(N)nc(N)c2n1)c1ccc(C(=O)N[C@@H](CCC(=O)O)C(=O)O)cc1` [Methotrexate], the entries for the “sensitivity to Methotrexate (proliferation)” value in assay [1], in assay [2] and in assay [3] were “sensitive”, “sensitive” and “not sensitive”, respectively. In addition, in assay [4], the “Expression of DHFR, TS, E2F-1, phosphorylated Rb and mutant K-RAS decreased” value is listed as “not”. Further, in assay [5], the “Expression of DHFR, TS, E2F-1, phosphorylated Rb and mutant K-RAS” value is listed as “decreased”. Also, in assay [6], the “sensitivity (responsiveness) of tumors with K-Ras mutant cells” value is reported as “sensitive”.
